The results in this text go back to US20250338846A1, “COMPOSITIONS HAVING PESTICIDAL UTILITY AND PROCESSES RELATED THERETO” (CORTEVA AGRISCIENCE, LLC, priority 2022, published 2025).

Values joined by “and” are separate entries in the source; they are usually repeats but may differ in a detail not shown here. Identical values can stand only once.

Type in all cases: in vivo
The test system of experiment [1] is Diamondback Moth (Plutella xylostella, PLUTMA). The experiment can be described thus: Bioassay 9: Diamondback Moth, leaves of track-sprayed cabbage plants, mortality and feeding damage scored. The conditions noted are these: F1 alone 40 (10^-5) Wt %.
In experiment [2] the test system is Sweet Potato Whitefly (Bemisia tabaci, BEMITA). The experiment in a line: Bioassay 8: Sweet Potato Whitefly, spray on cotton seedlings at crawler emergence, nymphs counted 7-9 days after treatment. To be noted: F1 alone 0.8 (10^-5) Wt %.
Experiment [3] relates to Cotton Aphid (Aphis gossypii, APHIGO). The experiment can be described thus: Bioassay 7: Cotton Aphid, foliar spray on infested cotton seedlings, live aphids counted three days after treatment.

`CCN(C(=O)CCS(C)(=O)=O)c1sc(-c2cccnc2)nc1Cl` [Formula F1, N-(4-chloro-2-(pyridin-3-yl)thiazol-5-yl)-N-ethyl-3-(methylsulfonyl)propanamide]: the “Average % Control F1” value in experiment [1] (Acute mortality) was found to be 6.82%; in experiment [1] (Feeding damage control), 8.53%; in experiment [2], 74.86%; in experiment [3] (F1 alone 0.1 (10^-5) Wt %) it was 24.39%; in experiment [3] (F1 alone 0.2 (10^-5) Wt %) it was 5.79%; in experiment [3] (F1 alone 0.78 (10^-5) Wt %), 25.58%. Besides, the “Average % Control F1” value in experiment [3] (F1 alone 0.8 (10^-5) Wt %) was 24.39% and 47.56%; in experiment [3] (F1 alone 2.5 (10^-5) Wt %) it was 29.04%.
